Assay results from patent US9580430B2, “9H-pyrimido[4,5-B]indoles and related analogs as BET bromodomain inhibitors” (THE REGENTS OF THE UNIVERSITY OF MICHIGAN, priority 2014, dated 2017).
Read-outs that look alike come from different tables or passages of the source.

How the values were obtained:
LNCaP = assay: Cell growth inhibition, LNCaP prostate cancer cells (Cell-Titer GLO); type: cell-based; conditions: Homo sapiens, read-out: Cellular data LNCaP IC50
MDA-MB-436 = assay: Cell growth inhibition, MDA-MB-436 breast cancer cells (WST-8); type: cell-based; conditions: Homo sapiens, 4 days
Outline: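 IC50 was computed from WST-8-based cell counting in MDA-MB-436 cells, with absorbance read at 450 nm.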

recombinant BRD4 BD2 = target: T1, recombinant BRD4 BD2 (Homo sapiens, UniProt O60885); assay: Competitive fluorescence-polarization (FP) binding assay, BRD4 BD2; conditions: for Ki: read-out: Binding affinities (FP) BRD4BD2 Ki; on IC50 (nM) BRD4 BD2: probe 1.5 nM
T1 construct: for recombinant BRD4 BD1 and BRD4 BD2 proteins
Outline: (§1)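 Buffer: 100 mM potassium phosphate, pH 6.5, 0.01% Triton X-100; compounds added in buffer with 40% ethylene glycol to preformed complex of fluorescent probe with BRD4 BD1 (10 nM final) or BD2 (6 nM final). After 30 min at room temperature, polarization read. IC50 from nonlinear fits of competition curves, with Ki.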

recombinant BRD4 BD1 = target: T2, recombinant BRD4 BD1 (Homo sapiens, UniProt O60885); assay: Competitive fluorescence-polarization (FP) binding assay, BRD4 BD1; conditions: for Ki: read-out: Binding affinities (FP) BRD4BD1 Ki; on IC50 (nM) BRD4 BD1: probe 1.5 nM
T2 construct: for recombinant BRD4 BD1 and BRD4 BD2 proteins
Outline: as §1

MOLM-13 = assay: Cell growth inhibition, MOLM-13 leukemia cells (CellTiter-Glo); type: cell-based; conditions: Homo sapiens, MOLM-13, 96 h; 4 days; read-out: IC50 (nM) MOLM-13 Cell Line (CellTiter-Glo assay)
Outline: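 Luminescent ATP-based viability (CellTiter-Glo, 10-20 min at room temperature) in compound-treated MOLM-13 cells; the half-maximal inhibitory concentration was calculated from the readout.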

[1] = 96 h, MDA-MB-436 cells, read-out: Cellular data MDA-MB-436 IC50
[2] = FP competitive binding, BRD4 BD2, read-out: Binding affinities (FP) BRD4BD2 IC50
[3] = FP competitive binding, BRD4 BD2
[4] = FP competitive binding, BRD4 BD1, read-out: Binding affinities (FP) BRD4BD1 IC50
[5] = FP competitive binding, BRD4 BD1
[6] = MDA-MB-436, 96 h, read-out: IC50 (nM) MDA-MB-436 Cell Line (WST assay)
[7] = competitive FP assay, protein 6 nM, probe […], read-out: IC50 (nM) BRD4 BD2
[8] = competitive FP assay, protein 10 nM, probe […], read-out: IC50 (nM) BRD4 BD1

COc1c(-c2c(C)noc2C)cc2[nH]c3nc(C)nc(N(C)c4cc(C5CC5)nn4C)c3c2c1F [Cpd. No. 306, N-(3-cyclopropyl-1-methyl-1H-pyrazol-5-yl)-7-(3,5-dimethylisoxazol-4-yl)-5-fluoro-6-methoxy-N,2-dimethyl-9H-pyrimido[4,5-b]indol-4-amine]
IC50 (LNCaP): 534 nM
IC50 (MDA-MB-436; [1]): 67 nM
IC50 (recombinant BRD4 BD2; [2]): 43 nM
Ki (recombinant BRD4 BD2; [3]): 10 nM
IC50 (recombinant BRD4 BD1; [4]): 129 nM
Ki (recombinant BRD4 BD1; [5]): 30 nM

COc1cc2c(cc1-c1c(C)noc1C)[nH]c1cncc(Nc3cc(C4CC4)nn3C)c12 [Cpd. No. 323, N-(3-Cyclopropyl-1-methyl-1H-pyrazol-5-yl)-7-(3,5-dimethylisoxazol-4-yl)-6-methoxy-9H-pyrido[3,4-b]indol-4-amine]
IC50 (LNCaP): 21 nM
IC50 (MDA-MB-436; [1]): 15 nM
IC50 (recombinant BRD4 BD2; [2]): 5.9 nM
Ki (recombinant BRD4 BD2; [3]): 1.2 nM
IC50 (recombinant BRD4 BD1; [4]): 11.8 nM
Ki (recombinant BRD4 BD1; [5]): 1.6 nM

COc1cc2c([nH]c3nc(C)nc(N(C)c4cc(C5CC5)nn4C)c32)c(F)c1-c1c(C)noc1C [Cpd. No. 308, N-(3-cyclopropyl-1-methyl-1H-pyrazol-5-yl)-7-(3,5-dimethylisoxazol-4-yl)-8-fluoro-6-methoxy-N,2-dimethyl-9H-pyrimido[4,5-b]indol-4-amine]
IC50 (LNCaP): 106 nM
IC50 (MDA-MB-436; [1]): 181 nM
IC50 (recombinant BRD4 BD2; [2]): 25 nM
Ki (recombinant BRD4 BD2; [3]): 5.3 nM
IC50 (recombinant BRD4 BD1; [4]): 23 nM
Ki (recombinant BRD4 BD1; [5]): 5 nM

COc1cc2c(cc1-c1c(C)noc1C)[nH]c1nc(C)nc(Nc3cc(C4CC4)nn3C3CCOCC3)c12 [Cpd. No. 283, N-(3-cyclopropyl-1-(tetrahydro-2H-pyran-4-yl)-1H-pyrazol-5-yl)-7-(3,5-dimethylisoxazol-4-yl)-6-methoxy-2-methyl-9H-pyrimido[4,5-b]indol-4-amine]
IC50 (LNCaP): 12 nM
IC50 (MDA-MB-436; [1]): 19 nM
IC50 (recombinant BRD4 BD2; [2]): 5 nM
Ki (recombinant BRD4 BD2; [3]): 0.9 nM
IC50 (recombinant BRD4 BD1; [4]): 4.5 nM
Ki (recombinant BRD4 BD1; [5]): 0.6 nM

COc1cccc(Nc2nc(C)nc3[nH]c4cc(-c5c(C)noc5C)c(OC)cc4c23)c1 [Cpd. No. 213, 7-(3,5-dimethylisoxazol-4-yl)-6-methoxy-N-(3-methoxyphenyl)-2-methyl-9H-pyrimido[4,5-b]indol-4-amine]
IC50 (MOLM-13): 103 nM
IC50 (MDA-MB-436; [6]): 211 nM
IC50 (recombinant BRD4 BD2; [7]): 28 nM
IC50 (recombinant BRD4 BD1; [8]): 54 nM

COc1cc2c(cc1-c1c(C)noc1C)[nH]c1nc(C)nc(Nc3nn(C)c4ccncc34)c12 [Cpd. No. 11, 7-(3,5-dimethylisoxazol-4-yl)-6-methoxy-2-methyl-N-(1-methyl-1H-pyrazolo[4,3-c]pyridin-3-yl)-9H-pyrimido[4,5-b]indol-4-amine]
IC50 (MOLM-13): 23.9 nM
IC50 (MDA-MB-436; [6]): 398 nM
IC50 (recombinant BRD4 BD2; [7]): 235 nM
IC50 (recombinant BRD4 BD1; [8]): 240 nM

COc1cc2c(cc1-c1c(C)noc1C)[nH]c1nc(C)nc(Nc3ccc4cc[nH]c4c3)c12 [Cpd. No. 233, 7-(3,5-dimethylisoxazol-4-yl)-N-(1H-indol-6-yl)-6-methoxy-2-methyl-9H-pyrimido[4,5-b]indol-4-amine]
IC50 (MOLM-13): 101 nM
IC50 (MDA-MB-436; [6]): 222 nM
IC50 (recombinant BRD4 BD2; [7]): 38 nM
IC50 (recombinant BRD4 BD1; [8]): 69 nM

COc1cc2c(cc1-c1c(C)noc1C)[nH]c1nc(C)nc(Nc3c(F)c(C4CC4)nn3C)c12 [Cpd. No. 249, N-(3-cyclopropyl-4-fluoro-1-methyl-1H-pyrazol-5-yl)-7-(3,5-dimethylisoxazol-4-yl)-6-methoxy-2-methyl-9H-pyrimido[4,5-b]indol-4-amine]
IC50 (MOLM-13): 159 nM
IC50 (MDA-MB-436; [6]): 302 nM
IC50 (recombinant BRD4 BD2; [7]): 99 nM
IC50 (recombinant BRD4 BD1; [8]): 29 nM

COc1cc2c(cc1-c1c(C)noc1C)[nH]c1nc(C)nc(Nc3[nH]ncc3C(C)C)c12 [Cpd. No. 32, 7-(3,5-dimethylisoxazol-4-yl)-N-(4-isopropyl-1H-pyrazol-5-yl)-6-methoxy-2-methyl-9H-pyrimido[4,5-b]indol-4-amine]
IC50 (MOLM-13): 40.9 nM
IC50 (MDA-MB-436; [6]): 155 nM
IC50 (recombinant BRD4 BD2; [7]): 39.4 nM
IC50 (recombinant BRD4 BD1; [8]): 26.5 nM

COc1cc2c(cc1-c1c(C)noc1C)[nH]c1nc(C)nc(Nc3cc(C)nn3C(C)C)c12 [Cpd. No. 9, 7-(3,5-Dimethylisoxazol-4-yl)-N-(1-isopropyl-3-methyl-1H-pyrazol-5-yl)-6-methoxy-2-methyl-9H-pyrimido[4,5-b]indol-4-amine]
IC50 (MOLM-13): 5 nM
IC50 (MDA-MB-436; [6]): 29.6 nM
IC50 (recombinant BRD4 BD2; [7]): 6.3 nM
IC50 (recombinant BRD4 BD1; [8]): 6.1 nM

COc1cc2c(cc1-c1c(C)noc1C)[nH]c1nc(C)nc(Nc3cn(C)nc3C(F)(F)F)c12 [Cpd. No. 179, 7-(3,5-dimethylisoxazol-4-yl)-6-methoxy-2-methyl-N-(1-methyl-3-(trifluoromethyl)-1H-pyrazol-4-yl)-9H-pyrimido[4,5-b]indol-4-amine]
IC50 (MOLM-13): 2080 nM
IC50 (MDA-MB-436; [6]): 330 nM
IC50 (recombinant BRD4 BD2; [7]): 116 nM
IC50 (recombinant BRD4 BD1; [8]): 166 nM

CCn1nc2c(c1Nc1nc(C)nc3[nH]c4cc(-c5c(C)noc5C)c(OC)cc4c13)CCCC2 [Cpd. No. 142, 7-(3,5-Dimethylisoxazol-4-yl)-N-(2-ethyl-4,5,6,7-tetrahydro-2H-indazol-3-yl)-6-methoxy-2-methyl-9H-pyrimido[4,5-b]indol-4-amine]
IC50 (MOLM-13): 1.1 nM
IC50 (MDA-MB-436; [6]): 7.3 nM
IC50 (recombinant BRD4 BD2; [7]): 0.5 nM
IC50 (recombinant BRD4 BD1; [8]): 4.5 nM

COc1cc2c(cc1-c1c(C)noc1C)[nH]c1nc(C)nc(Nc3cc(C(F)(F)F)nn3C)c12 [Cpd. No. 21, 7-(3,5-Dimethylisoxazol-4-yl)-6-methoxy-2-methyl-N-(1-methyl-3-(trifluoromethyl)-1H-pyrazol-5-yl)-9H-pyrimido[4,5-b]indol-4-amine]
IC50 (MOLM-13): 21.9 nM
IC50 (MDA-MB-436; [6]): 52.7 nM
IC50 (recombinant BRD4 BD2; [7]): 34.6 nM
IC50 (recombinant BRD4 BD1; [8]): 13.3 nM

COc1cc2c(cc1-c1c(C)noc1C)[nH]c1nc(C)nc(Nc3c(C)cnn3C(C)C)c12 [Cpd. No. 37, 7-(3,5-dimethylisoxazol-4-yl)-N-(1-isopropyl-4-methyl-1H-pyrazol-5-yl)-6-methoxy-2-methyl-9H-pyrimido[4,5-b]indol-4-amine]
IC50 (MOLM-13): 54.1 nM
IC50 (MDA-MB-436; [6]): 56.2 nM
IC50 (recombinant BRD4 BD2; [7]): 6.5 nM
IC50 (recombinant BRD4 BD1; [8]): 12.1 nM

COc1cc2c(cc1-c1c(C)noc1C)[nH]c1nc(C)nc(Nc3nn(C)c4ncccc34)c12 [Cpd. No. 10, 7-(3,5-Dimethylisoxazol-4-yl)-6-methoxy-2-methyl-N-(1-methyl-1H-pyrazolo[3,4-b]pyridin-3-yl)-9H-pyrimido[4,5-b]indol-4-amine]
IC50 (MOLM-13): 45.6 nM
IC50 (MDA-MB-436; [6]): 138 nM
IC50 (recombinant BRD4 BD2; [7]): 43.3 nM
IC50 (recombinant BRD4 BD1; [8]): 21.5 nM

COc1cc2c(cc1-c1c(C)noc1C)[nH]c1nc(C)nc(Nc3c(C)cnn3C3CCCC3)c12 [Cpd. No. 135, N-(1-Cyclopentyl-4-methyl-1H-pyrazol-5-yl)-7-(3,5-dimethylisoxazol-4-yl)-6-methoxy-2-methyl-9H-pyrimido[4,5-b]indol-4-amine]
IC50 (MOLM-13): 30.2 nM
IC50 (MDA-MB-436; [6]): 57.6 nM
IC50 (recombinant BRD4 BD2; [7]): 1.3 nM
IC50 (recombinant BRD4 BD1; [8]): 5.6 nM

COc1cc2c(cc1-c1c(C)noc1C)[nH]c1nc(C)nc(Nc3cc(C(C)(C)C)ns3)c12 [Cpd. No. 133, 3-(tert-Butyl)-N-(7-(3,5-dimethylisoxazol-4-yl)-6-methoxy-2-methyl-9H-pyrimido[4,5-b]indol-4-yl)isothiazol-5-amine]
IC50 (MOLM-13): 433 nM
IC50 (MDA-MB-436; [6]): 47900 nM
IC50 (recombinant BRD4 BD2; [7]): > 1000 nM
IC50 (recombinant BRD4 BD1; [8]): > 1000 nM

COc1cc2c(cc1-c1c(C)noc1C)[nH]c1nc(C)nc(Nc3cn(C)nc3C(C)C)c12 [Cpd. No. 181, 7-(3,5-dimethylisoxazol-4-yl)-N-(3-isopropyl-1-methyl-1H-pyrazol-4-yl)-6-methoxy-2-methyl-9H-pyrimido[4,5-b]indol-4-amine]
IC50 (MOLM-13): 22.2 nM
IC50 (MDA-MB-436; [6]): 22.9 nM
IC50 (recombinant BRD4 BD2; [7]): 10.2 nM
IC50 (recombinant BRD4 BD1; [8]): 4.4 nM

CCn1nc(C)c(C2CC2)c1Nc1nc(C)nc2[nH]c3cc(-c4c(C)noc4C)c(OC)cc3c12 [Cpd. No. 143, N-(4-Cyclopropyl-1-ethyl-3-methyl-1H-pyrazol-5-yl)-7-(3,5-dimethylisoxazol-4-yl)-6-methoxy-2-methyl-9H-pyrimido[4,5-b]indol-4-amine]
IC50 (MOLM-13): 98 nM
IC50 (MDA-MB-436; [6]): 175 nM
IC50 (recombinant BRD4 BD2; [7]): 57.7 nM
IC50 (recombinant BRD4 BD1; [8]): 27.9 nM

COc1cc2c(cc1-c1c(C)noc1C)[nH]c1nc(C)nc(Nc3c4c(nn3C3CC3)CCC4)c12 [Cpd. No. 148, N-(2-Cyclopropyl-2,4,5,6-tetrahydrocyclopenta[c]pyrazol-3-yl)-7-(3,5-dimethylisoxazol-4-yl)-6-methoxy-2-methyl-9H-pyrimido[4,5-b]indol-4-amine]
IC50 (MOLM-13): 3.4 nM
IC50 (MDA-MB-436; [6]): 20.4 nM
IC50 (recombinant BRD4 BD2; [7]): 5 nM
IC50 (recombinant BRD4 BD1; [8]): 7.9 nM

COc1cc2c(cc1-c1c(C)noc1C)[nH]c1nc(C)nc(Nc3nn(C)cc3C(C)C)c12 [compound 78, 7-(3,5-dimethylisoxazol-4-yl)-N-(4-isopropyl-1-methyl-1H-pyrazol-3-yl)-6-methoxy-2-methyl-9H-pyrimido[4,5-b] indol-4-amine]
IC50 (MOLM-13): 97.4 nM
IC50 (MDA-MB-436; [6]): 271 nM
IC50 (recombinant BRD4 BD2; [7]): 63.5 nM
IC50 (recombinant BRD4 BD1; [8]): 16 nM
